Earlier results, collected in US6368616B1, “Aqueous suspension for nasal administration of loteprednol” (Senju Pharmaceutical Co., Ltd., priority 1997, dated 2002).

solubility in water: substantially insoluble in water
SMILES: CCOC(=O)O[C@]1(C(=O)OCCl)CC[C@H]2[C@@H]3CCC4=CC(=O)C=C[C@]4(C)[C@H]3[C@@H](O)C[C@@]21C [loteprednol etabonate, Loteprednol etabonate]
